Laboratory results published in patent US10017762B2, “Compositions and methods for treating or preventing lupus” (The United States of America, as represented by the …, priority 2010, dated 2018).

Key:
blood basophils = assay: Blood basophil numbers and HLA-DR expression in SLE patients under immunosuppressive treatments; assay type: in vivo, human; settings: low dose (≤7.5 mg/day) vs medium to high dose (>7.5 mg/day) prednisone
Experimental: Blood was harvested in EDTA-coated tubes. 4 ml of blood was used to harvest plasma sample. For this purpose, blood was centrifugated at 600×g for 20 minutes at 4° C. Plasma phase was then harvested, and samples kept at […] until further analysis. For basophils analysis, 10 ml of whole blood were added to 20 ml of ACK lysing buffer and incubated 5 min at room temperature and 5 more minutes on ice. 30 ml of PBS was added, and cells were centrifuged (500×g, 5 min). This step was repeated three times total until no more red blood cells were visible. Cells were then resuspended into 10 ml (original volume) of FACS buffer (PBS/1% BSA/0.05% NaN3). Number of leukocytes per ml and viability were assessed with a ViCell cell counter (Beckman and Coulter). Viability was always over 90%. Cells were then processed for extracellular staining with the indicated surface markers. For basophil absolute counts, basophils were identified as FcϵRIα^+CD203c^+CD123^+CD11b^+ cells. For HLA-DR expression analysis, basophils were identified as FcϵRI^+CD203c^+CD11b^+. For CD62L expression analysis, basophils were identified as FcϵRIα^+CD203c^+CD123^+.

FcϵRI = settings: Lin, H. et al. (2004); cited from earlier work

C[C@]12C=CC(=O)C=C1CC[C@@H]1[C@@H]2C(=O)C[C@@]2(C)[C@H]1CC[C@]2(O)C(=O)CO [prednisone]
HLA-DR expressing basophils (blood basophils): no difference
number of peripheral basophils (blood basophils): no difference

omalizumab: recombinant DNA-derived humanized IgG monoclonal antibody that selectively binds to human immunoglobulin E (IgE)
FcϵRI expression on basophils (FcϵRI): decreases FcϵRI expression on basophils
